Data published in patent US9896482B2, “Beta hairpin peptides having antiviral properties against Dengue virus” (CENTRO DE INGENIERÍA GENÉTICA Y BIOTECNOLOGÍA, priority 2014, dated 2018).
Read-outs that look alike come from different tables or passages of the source. Where a SMILES comes first, the peptide text is derived from it. Bridges are numbered along the chain shown (N, C = ends). [ ]: non-standard residue; d: D form.

Tested on: DENV serotype 2 (NIBSC code S16803)
Test: Plaque reduction assay in Vero cells, DENV2
Assay type: cell-based, Dengue virus
Experimental: The cells were grown in 24 well plates until the monolayer reached approximately 90% confluence, after which they were washed twice with MEM medium without Fetal Bovine Serum (FBS). Then, peptide dilutions were added and the cell-peptide mixtures were incubated typically for 1 hour at 37° C., followed by the addition of a DENV serotype 2 preparation (NIBSC code S16803) at a multiplicity of infection (m.o.i.) of 0.001. The cells were then incubated for 1 hour at 37° C., and once the period of incubation with the viral inoculum concluded, were washed again to remove unbound virions and incubated for 5 days at 37° C. in high density medium (MEM supplemented with non-essential amino acids, 1% FBS, 1% carboxymethylcellulose) in order to let viral plaques form. Afterwards, the cells were stained with 0.1% Naphtol Blue Black in 0.15 M sodium acetate. Two replicates per experimental point were used in each assay, and three independent determinations were performed for each sample.
Next, it was decided to compare the antiviral activity of peptides PHB4 and HDIII3CL against all four DENV serotypes, with the objective of comparing their respective IC50 values. This comparison was performed with plaque reduction assays on Vero cells, adding the viral inoculum for each serotype (DENV1, NIBSC code West Pac 74, DENV2, NIBSC, code S16803; DENV3, NIBSC, code CH53489; DENV 4, NIBSC code TVP360) at a m.o.i. of 0.001.

CC[C@H](C)[C@@H]1NC(=O)[C@H](Cc2ccccc2)NC(=O)[C@H](Cc2c[nH]c3ccccc23)NC(=O)[C@H](CC(N)=O)NC(=O)[C@H](C(C)C)NC(=O)[C@H](CCCCN)NC(=O)[C@H](Cc2c[nH]c3ccccc23)NC(=O)[C@H](CCCCN)NC(=O)[C@H]2CCCN2C(=O)[C@H](CCCNC(=N)N)NC(=O)[C@H]([C@@H](C)O)NC(=O)[C@H](Cc2c[nH]c3ccccc23)NC(=O)[C@H](Cc2ccc(O)cc2)NC(=O)[C@H](C(C)C)NC(=O)[C@H](CCC(=O)O)NC(=O)[C@H]([C@@H](C)CC)NC(=O)[C@@H](N)CSSC[C@@H](C(=O)N[C@@H](CCCCN)C(=O)N[C@@H](CCCCN)C(=O)N[C@@H](CCCCN)C(N)=O)NC1=O [PHB4] (H-CIEVYWTR[dP]KWKVNWFICKKK-NH2; disulfide 1-18; N-terminus assumed)
IC50 (DENV2, plaque reduction, NA = no detectable activity at concentrations lower than or equal to 100 μM, read-out: IC50, antiviral activity in Vero cells (50% inhibitory activity)): 3 nM | IC50 (Vero cells, m.o.i. 0.001, read-out: Antiviral activity IC50 vs DENV2): 3 nM | Fold more potent than peptide HDIII3CL (depending on serotype, DENV1-4, Vero cells): 4000- to 7500 fold
